Reference: patent US20010055590A1, “Method for enhancing myoblast migration and invasion in the context of gene therapy” (priority 1999, published 2001)

B1: purified human plasmin (protein, UniProt P00747 20-580; P00747 581-810, looked up)
Plasmin heavy chain A: EPLDDYVNTQGASLFSVTKKQLGAGSIEECAAKCEEDEEFTCRAFQYHSKEQQCVIMAENRKSSIIIRMRDVVLFEKKVYLSECKTGNGKNYRGTMSKTKNGITCQKWSSTSPHRPRFSPATHPSEGLEENYCRNPDNDPQGPWCYTTDPEKRYDYCDILECEEECMHCSGENYDGKISKTMSGLECQAWDSQSPHAHGYIPSKFPNKNLKKNYCRNPDRELRPWCFTTDPNKRWELCDIPRCTTPPPSSGPTYQCLKGTGENYRGNVAVTVSGHTCQHWSAQTPHTHNRTPENFPCKNLDENYCRNPDGKRAPWCHTTNSQVRWEYCKIPSCDSSPVSTEQLAPTAPPELTPVVQDCYHGDGQSYRGTSSTTTTGKKCQSWSSMTPHRHQKTPENYPNAGLTMNYCRNPDADKGPWCFTTDPSVRWEYCNLKKCSGTEASVVAPPPVVLLPDVETPSEEDCMFGNGKGYRGKRATTVTGTPCQDWAAQEPHRHSIFTPETNPRAGLEKNYCRNPDGDVGGPWCYTTNPRKLYDYCDVPQCAAPSFDCGKPQVEPKKCPGR
Plasmin light chain B: VVGGCVAHPHSWPWQVSLRTRFGMHFCGGTLISPEWVLTAAHCLEKSPRPSSYKVILGAHQEVNLEPHVQEIEVSRLFLEPTRKDIALLKLSSPAVITDKVIPACLPSPNYVVADRTECFITGWGETQGTFGAGLLKEAQLPVIENKVCNRYEFLNGRVQSTELCAGHLAGGTDSCQGDSGGPLVCFEKDKYILQGVTSWGLGCARPNKPGVYVRVSRFVTWIEGVMRNN
modifications: Plasmin

How the values were obtained:
mouse myoblasts = experiment: In vitro mouse myoblast migration assay (gelatin-coated membrane); assay type: cell-based; conditions: 12 hours; for effect on bFGF-stimulated mouse myoblast migration: 0.05 units/ml plasmin or 50 mM NAC in top chamber; for effect on migration stimulated by bFGF and fibronectin in combination: 0.05 units/ml plasmin or 50 mM NAC; for stimulation of mouse myoblast migration over the DMEM control: 25 ng/ml bFGF, 50 μg/ml fibronectin, 10 ng/ml HGF, 2 ng/ml TGF-β1; for effect on mouse myoblast migration: stimulant in bottom chamber
Protocol: Mouse myoblasts were previously isolated from hind limb muscles of 4-6 week old severe combined immunodeficient (SCID) mice and clonally purified from contaminating fibroblasts (Yao et al. “Primary myoblast-mediated gene: transfer: persistent expression of human factor IX in mice” Gene Therapy 1:99-107, 1994). Myoblasts (approximately 1×10^6 cells) were plated on 6 cm tissue culture plates coated with 0.5% gelatin (Sigma, St. Louis, Mo.) and grown in growth medium consisting of Dulbecco's Modified Eagle Medium (DMEM) (Gibco BRL, Gaithersburg Md.) supplemented with 20% fetal bovine serum (FBS; Gibco) and 0.5% chick embryo extract (CEE; Gibco). All animal studies were carried out following the institutional guidelines for ethical animal use. Human myoblasts were isolated using trypsin digestion from abdominal wall or chest wall muscle biopsies, and surgery. Written consent was obtained from all patients prior to biopsy isolation as approved by the University Hospital's Institutional Regulation Board on the use of human subjects. Cells were preplated on uncoated plates for 1 hour to separate muscle fibroblasts. […] All experiments were done with myoblasts of passage 7 or lower. Myoblast migration and invasion were examined using a commercially available in vitro cell migration and invasion assay kit (Biocoat, Becton Dickinson, Franklin Lakes, N.J.) as described by Albini et al. (A rapid in vitro assay for quantitating the invasive potential of tumor cells Cancer Res 47:3239-3245, 1987). Myoblasts were grown to approximately 70% confluence, rinsed three times in serum-free DMEM, followed by incubation for 3 hours in 0.2% bovine serum albumin (BSA) in DMEM to eliminate the effects of serum. Cells were then trypsinized and collected by centrifugation. Cells were resuspended in serum-free DMEM at a density of 1×10^5 cells/ml, and 0.5 ml aliquots of cell suspension were added to the top chamber. […] Fibronectin subfragments of 45 KDa (Sigma), 120 kDa (Gibco), 63 kDa (Retronectin, Takara) and 70 KDa (Sigma) were used alone or in combination. […] For migration studies, the upper chamber membrane was coated with 0.1% gelatin and cells were allowed to migrate for 8-12 hours, while for invasion studies, the upper membrane was coated with 5 μl of Matrigel® diluted to 5 mg/ml in sterile phosphate buffered saline (PBS) and cells were allowed to invade for 24 hours. The top side of the insert membrane was scrubbed free of cells using a cotton swab and the bottom side was stained using the Leukostat-I system (Fisher Diagnostics, Pittsburgh, Pa.). The number of cells per field was counted in 10 randomly selected fields and averaged for each condition. To evaluate the effects of inactivation or activation of MMPs, aliquots (0.05 units in 50 μl PBS) of purified human plasmin (Sigma) or 50 mM N-acetyl cysteine (NAC; Sigma) were added with the cells to the top chamber of the migration assay and growth factor was added to the bottom. […] Myoblasts (5×10^4 cells/well) were stimulated with various growth factors and fibronectin, and their ability to migrate or invade through a Matrigel® barrier (panel a, mouse myoblast migration at 12 hours; panel b, mouse myoblast invasion at 24 hours). […] Bars represent mean ±SEM from a minimum of 3 separate experiments. […] Further studies were done to elucidate the role of MMPs in cytokine-mediated mouse myoblast migration.

human myoblasts = experiment: In vitro human myoblast migration assay; assay type: cell-based; conditions: for effect on stimulated human myoblast migration: plasmin or NAC, FIG. 7c, migration induced by PDGF-BB; for stimulation of human myoblast migration over the BSA control level: 12 hour time point
Protocol: Mouse myoblasts were previously isolated from hind limb muscles of 4-6 week old severe combined immunodeficient (SCID) mice and clonally purified from contaminating fibroblasts (Yao et al. “Primary myoblast-mediated gene: transfer: persistent expression of human factor IX in mice” Gene Therapy 1:99-107, 1994). Myoblasts (approximately 1×10^6 cells) were plated on 6 cm tissue culture plates coated with 0.5% gelatin (Sigma, St. Louis, Mo.) and grown in growth medium consisting of Dulbecco's Modified Eagle Medium (DMEM) (Gibco BRL, Gaithersburg Md.) supplemented with 20% fetal bovine serum (FBS; Gibco) and 0.5% chick embryo extract (CEE; Gibco). All animal studies were carried out following the institutional guidelines for ethical animal use. Human myoblasts were isolated using trypsin digestion from abdominal wall or chest wall muscle biopsies, and surgery. Written consent was obtained from all patients prior to biopsy isolation as approved by the University Hospital's Institutional Regulation Board on the use of human subjects. Cells were preplated on uncoated plates for 1 hour to separate muscle fibroblasts. Approximately 95% of the cells were desmin-positive following immunohistochemical staining of representative culture samples, and were capable of differentiation into myotubes, indicating high purity of the myoblast preparation. All experiments were done with myoblasts of passage 7 or lower. Myoblast migration and invasion were examined using a commercially available in vitro cell migration and invasion assay kit (Biocoat, Becton Dickinson, Franklin Lakes, N.J.) as described by Albini et al. (A rapid in vitro assay for quantitating the invasive potential of tumor cells Cancer Res 47:3239-3245, 1987). Myoblasts were grown to approximately 70% confluence, rinsed three times in serum-free DMEM, followed by incubation for 3 hours in 0.2% bovine serum albumin (BSA) in DMEM to eliminate the effects of serum. Cells were then trypsinized and collected by centrifugation. Cells were resuspended in serum-free DMEM at a density of 1×10^5 cells/ml, and 0.5 ml aliquots of cell suspension were added to the top chamber. […] Fibronectin subfragments of 45 KDa (Sigma), 120 kDa (Gibco), 63 kDa (Retronectin, Takara) and 70 KDa (Sigma) were used alone or in combination. The growth factor concentrations used were those which could produce maximal effects as examined in the present studies by extending from values reported by Bischoff (“Chemotaxis of skeletal muscle satellite cells” Devel. Dynamics 208:505-515, 1997). For migration studies, the upper chamber membrane was coated with 0.1% gelatin and cells were allowed to migrate for 8-12 hours, while for invasion studies, the upper membrane was coated with 5 μl of Matrigel® diluted to 5 mg/ml in sterile phosphate buffered saline (PBS) and cells were allowed to invade for 24 hours. The top side of the insert membrane was scrubbed free of cells using a cotton swab and the bottom side was stained using the Leukostat-I system (Fisher Diagnostics, Pittsburgh, Pa.). The number of cells per field was counted in 10 randomly selected fields and averaged for each condition. To evaluate the effects of inactivation or activation of MMPs, aliquots (0.05 units in 50 μl PBS) of purified human plasmin (Sigma) or 50 mM N-acetyl cysteine (NAC; Sigma) were added with the cells to the top chamber of the migration assay and growth factor was added to the bottom. […] The effects of growth factors on human myoblast migration in vitro (12 hour time point) were somewhat different from those observed with mouse myoblasts. […] The greatly elevated level of migration of human myoblasts was due in part to the extremely low migration in the BSA control (basal level) of human cells compared to mouse cells. The largest effects on human myoblast migration were produced by fibronectin (100-fold), PDGF (about 62-fold), TGF-β (about 54-fold) and HGF (46-fold) over the control level, while bFGF produced only a 37-fold stimulation (FIG. 7a). […]

Molecule | effect on migration stimulated by combination of bFGF and plasmin (mouse myoblasts; 50 mM NAC) | effect on bFGF-stimulated mouse myoblast migration (mouse myoblasts) | effect on migration stimulated by bFGF and fibronectin in combination (mouse myoblasts) | effect on stimulated human myoblast migration (human myoblasts) | stimulation of mouse myoblast migration over the DMEM control (mouse myoblasts) [fold] | effect on mouse myoblast migration (mouse myoblasts) | stimulation of human myoblast migration over the BSA control level (human myoblasts) [fold] | effect alone on mouse myoblast migration compared to the control (mouse myoblasts; 0.05 units/ml plasmin, no growth factor)
CC(=O)N[C@@H](CS)C(=O)O [NAC, N-acetyl cysteine, reference compound] | dramatic reduction | efficiently reduced the effect of bFGF on mouse myoblast migration to a level similar to the BSA control | attenuated the effects | greatly reduced | – | – | – | –
bovine basic fibroblast growth factor [bFGF] | – | – | – | – | 12 | stimulated migration of mouse myoblasts to various degrees | 37 | –
human serum fibronectin | – | – | – | – | 14 | stimulated migration of mouse myoblasts to various degrees | 100 | –
B1 | – | increased the migrational response to bFGF by nearly twofold | attenuated the effect | significantly increased | – | – | – | slightly negative effect
